Laboratory results published in US11998610B2, “Conjugates and methods of using the same” (Flagship Pioneering Innovations V, Inc., priority 2018, dated 2024).
Non-standard residues stand in square brackets, D forms with d. Residues, ends and D or L forms follow the SMILES beside them. *: point of attachment. Myristoyl = CCCCCCCCCCCCCC(=O)*; Octanoyl = CCCCCCCC(=O)*

Columns and labels:
[1] = tested on: E. coli CFT073 ATCC 700928 and/or E. coli Nissle 1917; assay: Cell-based assay with ClbP with LCMS, ClbP positive strain; details: ClbP-encoding E. coli, 10 μM compound, 37° C., 20 h
In short: (§1)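 Compound (10 μM final) incubated 20 h at 37° C, aerobically, with 1:40-diluted overnight cultures of ClbP-positive E. coli or negative BL21(DE3), in duplicate, alongside uninoculated LB. Remaining parent quantified by LC-MS/MS (MRM) after acetonitrile quench, expressed as percent of media-alone.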

[2] = tested on: E. coli BL21(DE3); assay: Cell-based assay with ClbP with LCMS, ClbP negative strain; details: 10 μM compound, 37° C., 20 h
In short: as §1

[3] = In vitro Colonic Material Stability Assay; format: in vitro ADME; details: for Assay 3 (% Remaining at 24 h): colonic material slurry, anaerobic, 1 or 10 μM
In short: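 Compounds were added at 1 or 10 μM final to colonic material slurry (6.7 μL of 15% w/v slurry per 1 mL YCFAC or similar medium). Samples taken at 0–2880 min were acetonitrile-quenched and the remaining compound quantified by LC/MS.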

[4] = Stability of conjugates in Simulated Gastric Fluid (SGF); format: in vitro ADME; details: simulated gastric fluid pH 1.6 with pepsin, 1 μM, 37° C.
In short: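 Compounds at 1 μM (from 1 mM DMSO stock) were incubated at 37°C in simulated gastric fluid, NaCl pH 1.6 with FaSSIF powder and 0.1 mg/mL pepsin. Aliquots taken at T0 and regular intervals were quenched with an equal volume of acetonitrile and analysed by LC/MS for degradation rate.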

CCCCCCCC(=O)N[C@H](CC(N)=O)C(=O)N[C@H](C(=O)OC)C(C)C [Example 6, Methyl octanoyl-D-asparaginyl-L-valinate] (Octanoyl-[dN]-Val-OMe)
% Remaining in ClbP Positve Relative to Media-Only [1]: ++ (<25% compound remaining in the 20 μM WT ClbP reaction relative to the control)
% Remaining in ClbP Negative Relative to Media-Only [2]: + (between 25-75% compound remaining in the 20 μM WT ClbP reaction relative to the no-enzyme control)
Assay 3 (% Remaining at 24 h) [3]: B (25-75% of the tested compound remaining)
Assay 1 (SGF) (% Remaining @ 1 hours) [4]: C (>75% of the tested compound remaining)

CCCCCCCCCCCCCC(=O)N[C@H](CC(N)=O)C(=O)N[C@@H](C)C(=O)OC [Example 1, Methyl tetradecanoyl-D-asparaginyl-L-alaninate] (Myristoyl-[dN]-Ala-OMe)
% Remaining in ClbP Positve Relative to Media-Only [1]: + (between 25-75% compound remaining in the 20 μM WT ClbP reaction relative to the no-enzyme control)
% Remaining in ClbP Negative Relative to Media-Only [2]: + (between 25-75% compound remaining in the 20 μM WT ClbP reaction relative to the no-enzyme control)
Assay 3 (% Remaining at 24 h) [3]: A (<25% of the tested compound remaining)
Assay 1 (SGF) (% Remaining @ 1 hours) [4]: C (>75% of the tested compound remaining)

CCCCCCCC(=O)N[C@H](CCC(=O)O)C(=O)N[C@@H](C)C(=O)OC [Example 9, (R)-5-(((S)-1-methoxy-1-oxopropan-2-yl)amino)-4-octanamido-5-oxopentanoic acid] (Octanoyl-[dE]-Ala-OMe)
% Remaining in ClbP Positve Relative to Media-Only [1]: + (between 25-75% compound remaining in the 20 μM WT ClbP reaction relative to the no-enzyme control)
% Remaining in ClbP Negative Relative to Media-Only [2]: − (>75% compound remaining in the 20 μM WT ClbP reaction relative to the no-enzyme control)
Assay 3 (% Remaining at 24 h) [3]: B (25-75% of the tested compound remaining)
Assay 1 (SGF) (% Remaining @ 1 hours) [4]: C (>75% of the tested compound remaining)

CCCCCCCCCCCCCC(=O)N[C@H](CC(N)=O)C(=O)Nc1ccc(COC)cc1 [Example 22, (R)—N1-(4-(methoxymethyl)phenyl)-2-tetradecanamidosuccinamide]
% Remaining in ClbP Positve Relative to Media-Only [1]: − (>75% compound remaining in the 20 μM WT ClbP reaction relative to the no-enzyme control)
% Remaining in ClbP Negative Relative to Media-Only [2]: − (>75% compound remaining in the 20 μM WT ClbP reaction relative to the no-enzyme control)
Assay 3 (% Remaining at 24 h) [3]: A (<25% of the tested compound remaining)
Selective delivery to the colon (conclusion from Table 2) ([3]; from SGF, SIF and colonic material stability): can be selectively delivered to the colon
Assay 1 (SGF) (% Remaining @ 1 hours) [4]: C (>75% of the tested compound remaining)
